Data: patent US6716596B2, “Agents for replacement of NAD+/NADH system in enzymatic reactions” (The Regents of the University of California, priority 2001, dated 2004)
Counter-ions that a name gives are not always drawn.

Assays:
[1] = stability observations (light, air, solvent); type: physicochemical
[2] = target: T1, horse liver alcohol dehydrogenase (HLADH) (Equus caballus, UniProt P00327); assay: biomimetic reduction of norcamphor (racemic); type: biochemical; conditions: for exo/endo alcohols formed from norcamphor enantiomer: reaction with the biomimics of the invention
T1 construct: purchased Sigma
Experimental: Biomimic yield expressed in equivalent was 86% corresponding to NAD^+ yield of 94% under the same conditions.
(§1) [Cp*Rh(bpy)(H2O)]OTf2 (1.9 mg, 2.61×10^−3 mmol), sodium formate (17.8 mg, 261.69×10^−3 mmol), NAD^+ (8.1 mg, 11.23×10^−3 mmol) and HLADH (10 units) were placed in a 10 mL Schlenk flask, and Schlenk techniques were followed to deoxygenate the solid mixture.
(§2) Under positive argon pressure, 5 mL of potassium phosphate buffer (100 mM, pH=7.02, deoxygenated) and carbonyl substrate (83.58×10^−3 mmol, deoxygenated) were added via syringe. The reaction flask was immediately securely capped with a glass-stopper and shaken with a shaker in 30° C. water-bath. The reaction was monitored by gas chromatography (GC), equipped with a β-cyclodextrin column (Supelco, β-DEX-225), and the products were identified by comparing the retention time with the corresponding authentic chiral samples and were confirmed by GC-MS. The enantiomeric excess of the products was determined directly by their relative area in the chromatogram. The progress of the reaction was obtained by mixing the reaction aliquot with an internal standard (cyclohexanol in phosphate buffer), and then calibrating the measured relative area in the chromatogram with their corresponding response factors. The reaction was monitored for 24 hours.
The procedure described in section A is equally applicable to reduction of racemic compounds such as norcamphor, seen in FIG. 8. The method requires the following modification. Due to the sublimation of norcamphor in vacuo, the addition of norcamphor was conducted under positive argon pressure, followed by the addition of phosphate buffer via syringe.

[3] = regioselective reduction of biomimics with catalyst precursor (2) and sodium formate, followed by 1H NMR; conditions: for catalytic hydride transfer: reduction with (2) and HCO2Na, 1H NMR; for turnover frequency (TOF) in the regioselective reduction: reduction to 1,4-dihydro derivative, NAD+ under the same conditions
Experimental: The relative rates, seen tabulated in FIG. 1C, were determined by observing disappearance of the pyridinium signals versus an internal standard, [(CH3)4N]OTf (tetramethylammonium triflate), during the first 2 hours, where the relative rate of 1-benzylnicotinamide triflate (1) was set to 1.0. The turnover frequencies were calculated by the formation of mmol of product/mmol of catalyst/hour. The total turnover number in 24 hours was ˜95 for all substrates that gave product. The reactions were conducted in presilylated J. Young NMR tubes and were followed by ^1H NMR.
The electronic effect of differently substituted nicotinamide substrates was determined by their relative rates. The relative rates of these compounds were determined by observing the disappearance of the pyridinium signals compared to interval standard, [(CH3)4N]OTf, during the first 2 hours, where the relative rate of compound (1a) was 1.0.
In a typical reaction, a J. Young NMR tube was charged, biomimic substrates (1a)-(1i) (1.0 mol), 2 (1% mol), and HCO2Na (1.1 mol) used as the hydride source and a Schlenk techniques were conducted to deoxygenate the solid mixture. A diluted solvent was added to these solids for compounds (1a)-(1i), the solvent was D2O-THF-d8 (1=1 0.75 mL, deoxygenated), and the NMR tube was placed in a liquid nitrogen bath. The contents were further degassed by two successive freeze-pump-thaw cycles. After thawing out the reaction mixture, the J. Young NMR tube was immediately put in a salted ice-bath and covered with aluminum foil. The reaction was then followed by ^1H NMR spectroscopy at 26° C. temperature, after a speedy thawing out.
The given relative rates and turnover frequencies were determined by decreasing integration of the corresponding pyridinium salts measured against an internal standard, (CH3)4N(OTf), during the first 2 h of the reaction. The ratios of the 1,4- and 1,6-dihydronicotinamide derivatives of compounds (1a), (1b) and (1d)-(1g) were obtained by comparison of the resonance signals with those of authentic samples, where the diagnostic signal is the resonance for —CH2Ph moiety which can be identified unambiguously in the ^1H NMR spectrum.

[4] = competitive regioselective substrate reduction experiments with rhodium catalyst precursor (2); conditions: for times faster than compound (1): competitive reduction with compound (1); for competitive rate: reduced in the presence of compound (1a)
Experimental: In order to establish whether the σ-donating ability or the electron-withdrawing effect of the 3-substituent of the 1-benzylnicotinamide was the important parameter, several competitive substrate reduction experiments were performed.
For this purpose, the compound (1a) 1-benzylnicotinamide, was reduced with rhodium catalyst precursor (2) in the presence of its alternatively substituted derivatives, compounds (1e), substituted with —C(O)—CH3, (1g), substituted with (—CN), (1d), substituted with —C(S)NH2 or (1f), substituted with —C(O)OCH3, and their competitive reduction was determined.

[5] = target: T1, horse liver alcohol dehydrogenase (HLADH); assay: HLADH enzymatic chiral reduction of ketones with biomimic co-factor regeneration; type: biochemical; conditions: for turnover frequency of chiral ketone reduction: ketone (12) reduced by HLADH with co-factor regeneration, 24 hours
Experimental: FIG. 7 presents structures of ketone substrates 12-15 used for biomimic chiral synthesis of corresponding alcohols. Conversion of the substrates 12-15 to their corresponding alcohols are expressed in % yield, and TOF in d^−1 and S-enantiomer excess (ee) are also shown for each conversion. Corresponding values obtained with NAD^+ are given in parenthesis. The S-enantiomeric excess (ee) was determined by GLC with a modified β-cyclodextrin capillary column.
as §1, §2
The same procedure as described in section A was followed, except that NAD^+ was substituted with any one of the biomimic compounds of the invention.

[6] = UV-vis kinetics of the regioselective reduction with rhodium catalyst precursor (2) and formate; conditions: for TOF / ri initial rate: 294° K, H2O at pH 6.54, substrate 1.55 × 10^−3 M; for ri initial rate: average of two runs; for initial rate, times higher than compound (1) in THF/H2O (1:1): acqueous medium, comparable concentrations
From the text: The kinetics of the regioselective reduction reactions were further studied utilizing UV-vis techniques with the two biomimic compounds (1) and (6) and the results were compared to NAD^+ itself. Experimental conditions are described in Example 9.
The effect of the initial rate (ri) at low conversions to the 1,4-dihydro product (˜10%) was ascertained by varying the amount of substrate precatalyst (2) and sodium formate concentrations.
The initial rates (ri) of formation of compound (3) were obtained from plots of concentration (absorbance at 354 nm/ε) versus time at low conversions (˜10%). The values of kcat were calculated at 299° K.
Rates were obtained via UV-vis techniques and are an average of two runs.
This example describes studies producing kinetic and thermodynamic data for 1-benzylnicotinamide triflate (1a) performed in THF/H2O, 1:1, β-nicotinamide -5′-ribose methyl phosphate (6) H2O, pH=6.5, and NAD^+ performed in the regioselective reduction with [Cp*Rh(bpy)H2O)][OTf]2, 2 and in the presence of formate ion.
The kinetic experiments were carried out on a Hewlett Packard 8452A Diode Array Uv-Vis spectrophotometer, attached to a circulating water bath (VWR 1160). For experiments conducted at different temperatures, the circulating water bath, as well as the UV-vis instrument, were warmed up for at least an 1 hour before the kinic studies were initiated.
The 1-benzylnicotinamide triflate (1a) [CP*Rh(bpy)(H2O)][OTf]2 (2) and 1-benzyl-1,4 dihydronicotinamide (3) were synthesized by methods as described in Examples 2, 4 and 7. The NAD^+ and 1,4-NADH compounds were purchased from Sigma and used as received. The THF was distilled from Na and deoxygenate with N2 gas for 1 hour. Distilled water was purchased from Aldrich Chemical Co and deoxygenate prior to being used. A solution of THF/H2O (similar for 1:1 or 1:4 ratios) was used for all the kinetic experiments performed for compounds of 1-benzylnicotinamide type, unless otherwise specified. A stock solution of biomimic (1a) (0.018 M), 2 (6.23×10^−3 M), and sodium formate (0.25 M) were made for the kinetic experiments in THF/H2O (1:1).
A solution of 1-benzylnicotinamide triflate (1a), (4.29×10^−3 M) and sodium formate (0.0539) was made in a volumetric flask (10 mL) under N2 in a THF/H2O (1:1) mixture. The different concentration of biomimic (1a) and sodium formate used for the kinetic experiments are reported above.
A 3.0 mL aliquot of this solution was transferred to a thermostated UV-vis cell by using an air-free syringe, which was also purged with N2 gas. The sample was then brought to the desired temperature for 30-60 min in the UV-vis spectrophotometer thermostated cell holder. Then, 23 μL of a 6.23×10^−3 M stock solution of [CP*Rh(bpy)(H2O)^2+ (2), was added-by syringe under a positive N2 pressure, quickly mixed with the solution, and the absorbance increase at 354 nm was immediately recorded. The experiment was carried out for 2 hours and the formation of the product, 1-benzyl-1,4-dihydronicotinamide, (3) was followed, with the change in absorbance being recorded every 90 seconds. Some kinetic experiments were carried out until all the starting material was converted to product. The induced volume change was taken into account for the calculation of the turnover frequency (TOF).
The kinetic experiments for the β-nicotinamide-5′-ribose methyl phosphate (6) and natural NAD^+ were performed using the same general procedure described above. These kinetic experiments were carried out in H2O and the concentration of β-nicotinamide-5′-ribose methyl phosphate (6) or NAD^+, sodium formate, and [Cp*Rh(bpy)(H2O)]^2+ (2), were in the order of 1.50×10^−3, 0.0186 M, and 1.42×10^−5 M, respectively. The λmax for the β-nicotinamide-5′-ribose methyl phosphate, (6), and natural NAD^+ was 336 nm. In all the initial rate plots, time =0 s was removed from the plots of Concentration versus Time. The standard deviation of the ri were calculated from 2σ values.

T1 sequence (P00327 2-375 limits assumed): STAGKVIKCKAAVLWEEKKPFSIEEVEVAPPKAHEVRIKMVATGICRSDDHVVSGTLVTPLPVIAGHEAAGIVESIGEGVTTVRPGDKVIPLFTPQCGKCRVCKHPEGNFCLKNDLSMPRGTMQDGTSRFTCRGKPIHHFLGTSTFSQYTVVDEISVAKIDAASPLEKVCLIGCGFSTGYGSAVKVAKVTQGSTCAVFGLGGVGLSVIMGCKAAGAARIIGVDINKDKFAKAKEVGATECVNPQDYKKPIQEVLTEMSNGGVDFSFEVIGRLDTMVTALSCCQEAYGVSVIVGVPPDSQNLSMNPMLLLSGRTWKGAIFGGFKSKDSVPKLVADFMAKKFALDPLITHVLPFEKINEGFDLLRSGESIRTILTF

## COP(=O)(O)OC[C@H]1O[C@@H](N2C=CCC(C(N)=O)=C2)[C@H](O)[C@@H]1O
[1]
  stability: both light- and air-sensitive

## O=C1CC2CC[C@H]1C2 (racemic) [Compound 16, norcamphor]
[2]
  exo/endo alcohols formed from norcamphor enantiomer: exclusively the endo alcohol

## O=C1CC2CC[C@H]1C2 (racemic) [Compound 17, norcamphor]
[2]
  exo/endo alcohols formed from norcamphor enantiomer: approximately equal mixture of exo and endo alcohols

## C[n+]1cccc(C(N)=O)c1 [1-methylnicotinamide, 1-Methylnicotinamide Triflate Salt]
[3]
  relative rate ratio of 1-benzyl/1-methylnicotinamide: 2.0
[3]; disappearance of pyridinium signals vs [(CH3)4N]OTf during first 2 hours, compound (1a) set to 1.0
  relative rate of regioselective reduction: 0.5

## CCN(CC)C(=O)c1ccc[n+](Cc2ccccc2)c1 [Compound 1c, 1-Benzyl-N,N-diethylnicotinamide, Triflate Salt]
[3]
  catalytic hydride transfer: not observed

## NC(=S)c1ccc[n+](Cc2ccccc2)c1 [Compound 1d, 1-Benzylthionicotinamide, Triflate Salt]
[4]
  times faster than compound (1): 1.3 times

## CC(=O)c1ccc[n+](Cc2ccccc2)c1.O=S(=O)([O-])C(F)(F)F [Compound 1e, 1-Benzyl-3-acetylpyridinium Triflate]
[4]
  competitive rate: 0.9

## COC(=O)c1ccc[n+](Cc2ccccc2)c1.O=S(=O)([O-])C(F)(F)F [Compound 1f, 1-Benzyl-3-carbomethoxypyridinium Triflate]
[4]
  times faster than compound (1): 1.2 times

## N#Cc1ccc[n+](Cc2ccccc2)c1.O=S(=O)([O-])C(F)(F)F [Compound 1g, 1-Benzyl-3-cyanopyridinium triflate]
[4]
  competitive rate: 0.8

## Cc1ccc[n+](Cc2ccccc2)c1.O=S(=O)([O-])C(F)(F)F [Compound 1h, 1-Benzyl-3-methylpyridinium triflate]
[3]
  catalytic hydride transfer: not observed

## O=S(=O)([O-])C(F)(F)F.c1ccc(C[n+]2ccccc2)cc1 [Compound 1i, 1-Benzyl-pyridinium triflate]
[3]
  catalytic hydride transfer: not observed

## NC(=O)C1=CN(Cc2ccccc2)C=CC1 [Compound 3, 1-benzyl-1,4-dihydronicotinamide]
[5]
  recognition by HLADH as hydride catalyst of the chiral conversion: recognizes

## COP(=O)([O-])OC[C@H]1O[C@@H]([n+]2cccc(C(N)=O)c2)[C@H](O)[C@@H]1O [Compound 6, β-nicotinamide ribose-5′-methyl phosphate]
[1]
  stability: light-sensitive and somewhat air-sensitive
[6]
  TOF: 7 h⁻¹
  ri initial rate: 2.82e-08 M/s
  initial rate, times higher than compound (1) in THF/H2O (1:1): ~3 times
[5]
  recognition by HLADH as hydride catalyst of the chiral conversion: recognizes
  turnover frequency of chiral ketone reduction: ~30 day⁻¹
[3]
  TOF, times higher than those of compounds (1a)-(1i): approximately 2.5 times
  turnover frequency (TOF) in the regioselective reduction: 20 h⁻¹
[3]; in water vs 1-benzylnicotinamide in THF/water
  TOF, times higher than 1-benzylnicotinamide: about 2.5 times

## CC(=O)Cc1ccccc1 [Compound 13, benzylmethylketone]
[5]
  enantiomeric excess of chiral alcohol from the ketone substrate, S-enantiomer: > 99 % ee

## CC(=O)c1ccccc1 [Compound 14, acetophenone]
[5]
  enantiomeric excess of chiral alcohol from the ketone substrate, S-enantiomer: > 96 % ee
  yield of chiral product: 5%

## NC(=O)C1=CN([C@@H]2O[C@H](COP(=O)(O)OP(=O)(O)OC[C@H]3O[C@@H](n4cnc5c(N)ncnc54)[C@H](O)[C@@H]3O)[C@@H](O)[C@H]2O)C=CC1 [NAD^+, β-Nicotinamide adenine dinucleotide, reference compound]
[2]; racemic norcamphor, same conditions for NAD^+
  yield of norcamphor reduction expressed in equivalent: 94%
[6]
  TOF: 9 h⁻¹
  ri initial rate: 3.1e-08 M/s
  initial rate, times higher than compound (1) in THF/H2O (1:1): ~3 times
[5]
  turnover frequency of chiral ketone reduction: ~30 day⁻¹
[3]
  turnover frequency (TOF) in the regioselective reduction: 18 h⁻¹

## [Cp*Rh(η^2-(N,N)-2,2′-bipyridyl)(H2O)](OTf)2 [Compound 2]
[1]
  stability: stable as a solid in the air
